Assay results taken from ChEMBL document CHEMBL1150977, “A quantitative analysis of kinase inhibitor selectivity” (Nat Biotechnol, 2008).

Experiments:
[1] = molecular target: T1, Tyrosine-protein kinase Tec (Homo sapiens, UniProt P42680)
T1 sequence (P42680 whole entry): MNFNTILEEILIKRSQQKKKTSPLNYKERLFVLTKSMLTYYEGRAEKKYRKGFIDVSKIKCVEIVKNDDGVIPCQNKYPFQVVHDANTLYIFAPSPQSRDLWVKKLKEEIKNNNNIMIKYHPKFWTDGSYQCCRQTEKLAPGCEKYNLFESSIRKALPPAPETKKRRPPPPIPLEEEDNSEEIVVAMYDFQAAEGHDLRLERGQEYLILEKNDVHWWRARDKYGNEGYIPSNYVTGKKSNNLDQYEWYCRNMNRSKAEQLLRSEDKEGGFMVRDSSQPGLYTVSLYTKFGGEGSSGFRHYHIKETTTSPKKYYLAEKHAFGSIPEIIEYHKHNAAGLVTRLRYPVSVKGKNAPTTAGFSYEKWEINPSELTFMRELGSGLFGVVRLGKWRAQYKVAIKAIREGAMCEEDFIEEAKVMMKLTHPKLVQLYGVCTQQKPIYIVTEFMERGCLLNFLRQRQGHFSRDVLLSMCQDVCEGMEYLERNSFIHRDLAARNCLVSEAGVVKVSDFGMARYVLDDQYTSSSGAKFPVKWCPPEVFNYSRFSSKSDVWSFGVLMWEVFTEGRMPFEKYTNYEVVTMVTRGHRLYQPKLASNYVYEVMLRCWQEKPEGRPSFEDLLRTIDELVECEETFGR

[2] = molecular target: Calcium/calmodulin-dependent protein kinase type II subunit delta (Homo sapiens, UniProt Q13557)
Chain of Calcium/calmodulin-dependent protein kinase type II subunit delta (Q13557 whole entry): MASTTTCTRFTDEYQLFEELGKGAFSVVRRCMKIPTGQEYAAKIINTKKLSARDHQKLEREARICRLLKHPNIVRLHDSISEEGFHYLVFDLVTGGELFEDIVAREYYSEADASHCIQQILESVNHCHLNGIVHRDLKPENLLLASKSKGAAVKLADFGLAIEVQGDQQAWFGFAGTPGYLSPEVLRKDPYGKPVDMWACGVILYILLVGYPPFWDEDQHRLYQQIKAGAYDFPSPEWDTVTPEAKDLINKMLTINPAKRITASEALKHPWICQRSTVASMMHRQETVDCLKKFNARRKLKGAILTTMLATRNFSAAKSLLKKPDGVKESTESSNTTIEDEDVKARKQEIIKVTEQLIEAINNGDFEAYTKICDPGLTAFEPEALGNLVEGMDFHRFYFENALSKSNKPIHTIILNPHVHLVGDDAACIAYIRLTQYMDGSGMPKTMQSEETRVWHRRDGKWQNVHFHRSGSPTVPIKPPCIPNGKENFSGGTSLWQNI

[3] = molecular target: T2, Serine/threonine-protein kinase BRSK2 (Homo sapiens, UniProt Q8IWQ3)
T2 sequence (Q8IWQ3 whole entry): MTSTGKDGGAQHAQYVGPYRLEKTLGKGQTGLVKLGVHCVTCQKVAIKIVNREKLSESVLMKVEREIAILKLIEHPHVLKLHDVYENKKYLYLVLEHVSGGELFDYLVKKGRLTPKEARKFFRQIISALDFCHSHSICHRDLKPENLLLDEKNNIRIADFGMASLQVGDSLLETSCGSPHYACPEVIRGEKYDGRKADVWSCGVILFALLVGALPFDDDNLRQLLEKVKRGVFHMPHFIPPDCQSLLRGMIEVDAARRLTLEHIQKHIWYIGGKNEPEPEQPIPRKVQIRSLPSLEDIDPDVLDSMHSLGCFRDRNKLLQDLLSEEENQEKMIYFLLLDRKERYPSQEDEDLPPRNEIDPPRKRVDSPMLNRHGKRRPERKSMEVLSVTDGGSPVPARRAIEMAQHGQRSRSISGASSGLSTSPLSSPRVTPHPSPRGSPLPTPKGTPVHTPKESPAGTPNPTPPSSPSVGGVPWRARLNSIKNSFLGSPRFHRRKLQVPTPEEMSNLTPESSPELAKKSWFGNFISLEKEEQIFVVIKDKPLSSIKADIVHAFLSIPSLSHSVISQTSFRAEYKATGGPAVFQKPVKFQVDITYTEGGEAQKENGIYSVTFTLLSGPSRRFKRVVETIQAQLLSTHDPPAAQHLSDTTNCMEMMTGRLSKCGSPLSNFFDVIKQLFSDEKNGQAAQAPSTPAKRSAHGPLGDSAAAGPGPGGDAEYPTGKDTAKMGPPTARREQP

[4] = molecular target: Vascular endothelial growth factor receptor 3 (Homo sapiens, UniProt P35916)
Chain of Vascular endothelial growth factor receptor 3 (P35916 whole entry): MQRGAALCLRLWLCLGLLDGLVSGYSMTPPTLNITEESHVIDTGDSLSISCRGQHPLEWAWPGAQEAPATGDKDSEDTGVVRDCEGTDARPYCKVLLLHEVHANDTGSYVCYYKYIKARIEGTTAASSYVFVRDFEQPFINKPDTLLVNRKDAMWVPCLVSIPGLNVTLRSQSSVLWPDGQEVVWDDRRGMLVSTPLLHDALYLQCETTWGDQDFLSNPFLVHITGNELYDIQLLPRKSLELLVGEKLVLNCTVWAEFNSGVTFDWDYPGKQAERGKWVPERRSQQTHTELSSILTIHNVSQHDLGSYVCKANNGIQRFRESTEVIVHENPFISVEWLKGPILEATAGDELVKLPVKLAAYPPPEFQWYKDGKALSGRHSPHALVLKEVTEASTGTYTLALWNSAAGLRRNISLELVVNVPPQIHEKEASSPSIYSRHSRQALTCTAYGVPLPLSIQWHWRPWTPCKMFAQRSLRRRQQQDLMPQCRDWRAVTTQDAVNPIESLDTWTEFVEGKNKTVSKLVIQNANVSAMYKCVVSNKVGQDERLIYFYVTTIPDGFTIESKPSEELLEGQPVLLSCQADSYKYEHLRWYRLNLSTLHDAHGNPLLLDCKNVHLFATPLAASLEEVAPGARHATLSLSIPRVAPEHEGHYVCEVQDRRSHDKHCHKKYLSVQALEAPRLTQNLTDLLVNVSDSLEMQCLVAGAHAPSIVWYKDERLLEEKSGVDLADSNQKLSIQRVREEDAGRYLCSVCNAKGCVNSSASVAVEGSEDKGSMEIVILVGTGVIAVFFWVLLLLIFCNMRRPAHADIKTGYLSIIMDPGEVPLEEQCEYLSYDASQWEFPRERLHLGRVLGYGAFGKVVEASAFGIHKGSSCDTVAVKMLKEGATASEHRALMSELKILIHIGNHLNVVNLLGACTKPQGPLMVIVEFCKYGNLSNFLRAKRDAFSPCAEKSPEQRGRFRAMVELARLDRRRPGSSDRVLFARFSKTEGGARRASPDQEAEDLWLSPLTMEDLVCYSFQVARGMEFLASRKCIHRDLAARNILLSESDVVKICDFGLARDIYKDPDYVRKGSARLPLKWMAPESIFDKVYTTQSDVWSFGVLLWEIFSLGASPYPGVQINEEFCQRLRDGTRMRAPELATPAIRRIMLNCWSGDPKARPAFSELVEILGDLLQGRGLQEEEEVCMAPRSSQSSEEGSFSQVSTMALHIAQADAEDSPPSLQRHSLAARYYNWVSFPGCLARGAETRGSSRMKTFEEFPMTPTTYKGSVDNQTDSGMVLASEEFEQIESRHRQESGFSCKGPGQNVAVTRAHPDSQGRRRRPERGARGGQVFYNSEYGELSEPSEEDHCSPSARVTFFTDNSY

[5] = molecular target: Mitogen-activated protein kinase 4 (Homo sapiens, UniProt P31152)
Chain of Mitogen-activated protein kinase 4 (P31152 whole entry, the tested form may be a part): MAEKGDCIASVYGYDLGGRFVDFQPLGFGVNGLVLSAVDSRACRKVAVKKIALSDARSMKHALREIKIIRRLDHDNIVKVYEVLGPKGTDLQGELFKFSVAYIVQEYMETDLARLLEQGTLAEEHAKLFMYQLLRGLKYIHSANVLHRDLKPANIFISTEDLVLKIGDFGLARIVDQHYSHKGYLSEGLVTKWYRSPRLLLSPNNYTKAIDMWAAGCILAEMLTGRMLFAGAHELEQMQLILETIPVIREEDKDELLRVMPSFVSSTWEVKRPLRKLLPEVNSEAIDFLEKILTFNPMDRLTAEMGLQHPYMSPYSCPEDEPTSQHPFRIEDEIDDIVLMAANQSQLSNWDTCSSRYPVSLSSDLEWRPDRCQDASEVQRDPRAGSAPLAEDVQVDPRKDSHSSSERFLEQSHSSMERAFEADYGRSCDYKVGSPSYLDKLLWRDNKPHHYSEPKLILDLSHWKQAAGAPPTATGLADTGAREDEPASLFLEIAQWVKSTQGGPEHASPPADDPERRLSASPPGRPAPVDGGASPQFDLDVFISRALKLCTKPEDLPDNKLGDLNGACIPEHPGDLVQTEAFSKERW

LIM domain kinase 2 = LIM domain kinase 2 (Homo sapiens, UniProt P53671)
Chain of LIM domain kinase 2 (P53671 whole entry, the tested form may be a part): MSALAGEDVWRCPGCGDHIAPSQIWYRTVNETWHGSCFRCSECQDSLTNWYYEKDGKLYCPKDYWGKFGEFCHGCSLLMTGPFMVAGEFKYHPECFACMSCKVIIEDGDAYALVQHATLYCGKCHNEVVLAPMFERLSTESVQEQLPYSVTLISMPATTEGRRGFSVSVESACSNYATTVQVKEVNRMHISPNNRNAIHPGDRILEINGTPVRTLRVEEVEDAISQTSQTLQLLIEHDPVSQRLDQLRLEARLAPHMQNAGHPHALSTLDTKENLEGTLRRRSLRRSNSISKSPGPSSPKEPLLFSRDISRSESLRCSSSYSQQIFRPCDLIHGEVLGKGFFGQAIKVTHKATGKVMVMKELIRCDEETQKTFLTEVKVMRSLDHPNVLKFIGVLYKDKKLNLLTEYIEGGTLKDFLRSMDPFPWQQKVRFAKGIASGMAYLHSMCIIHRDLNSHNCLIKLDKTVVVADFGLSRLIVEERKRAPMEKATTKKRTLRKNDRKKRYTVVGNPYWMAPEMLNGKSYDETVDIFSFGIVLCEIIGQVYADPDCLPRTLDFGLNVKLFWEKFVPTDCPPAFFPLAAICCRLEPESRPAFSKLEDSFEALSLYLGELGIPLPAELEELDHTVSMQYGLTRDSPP

[6] = molecular target: Calcium/calmodulin-dependent protein kinase type II subunit alpha (Homo sapiens, UniProt Q9UQM7)
Chain of Calcium/calmodulin-dependent protein kinase type II subunit alpha (Q9UQM7 whole entry): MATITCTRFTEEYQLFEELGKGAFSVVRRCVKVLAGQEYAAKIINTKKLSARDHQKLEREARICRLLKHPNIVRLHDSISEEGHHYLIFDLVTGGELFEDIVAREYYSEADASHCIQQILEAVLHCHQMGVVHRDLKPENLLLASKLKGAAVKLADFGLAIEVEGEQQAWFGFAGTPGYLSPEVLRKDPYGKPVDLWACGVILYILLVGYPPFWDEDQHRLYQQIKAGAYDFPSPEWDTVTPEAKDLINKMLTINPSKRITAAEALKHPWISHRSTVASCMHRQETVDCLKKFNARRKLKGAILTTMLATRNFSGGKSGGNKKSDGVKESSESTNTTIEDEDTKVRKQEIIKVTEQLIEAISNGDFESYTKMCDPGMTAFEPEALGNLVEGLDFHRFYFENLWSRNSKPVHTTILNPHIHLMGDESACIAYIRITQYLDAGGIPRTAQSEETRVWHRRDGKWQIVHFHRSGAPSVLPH

[7] = molecular target: T3, Serine/threonine-protein kinase DCLK3 (Homo sapiens, UniProt Q9C098)
T3 sequence (Q9C098 whole entry): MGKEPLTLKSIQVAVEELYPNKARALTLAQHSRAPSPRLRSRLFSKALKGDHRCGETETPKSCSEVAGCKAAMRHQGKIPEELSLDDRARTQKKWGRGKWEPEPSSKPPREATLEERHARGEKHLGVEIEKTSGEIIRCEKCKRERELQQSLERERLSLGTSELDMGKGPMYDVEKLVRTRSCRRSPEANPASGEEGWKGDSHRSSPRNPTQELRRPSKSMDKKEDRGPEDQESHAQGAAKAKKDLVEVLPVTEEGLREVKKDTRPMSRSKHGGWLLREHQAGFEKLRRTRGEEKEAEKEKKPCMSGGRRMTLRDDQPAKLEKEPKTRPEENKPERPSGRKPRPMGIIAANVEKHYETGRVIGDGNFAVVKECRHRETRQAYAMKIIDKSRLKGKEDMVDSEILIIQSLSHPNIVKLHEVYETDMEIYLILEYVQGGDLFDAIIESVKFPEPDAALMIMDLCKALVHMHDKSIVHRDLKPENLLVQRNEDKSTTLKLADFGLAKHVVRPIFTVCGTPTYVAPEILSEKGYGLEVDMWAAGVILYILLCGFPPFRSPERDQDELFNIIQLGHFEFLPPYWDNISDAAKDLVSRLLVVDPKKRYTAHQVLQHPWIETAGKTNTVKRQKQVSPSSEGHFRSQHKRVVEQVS

Ephrin type-A receptor 5 = Ephrin type-A receptor 5 (Homo sapiens, UniProt P54756)
Chain of Ephrin type-A receptor 5 (P54756 whole entry): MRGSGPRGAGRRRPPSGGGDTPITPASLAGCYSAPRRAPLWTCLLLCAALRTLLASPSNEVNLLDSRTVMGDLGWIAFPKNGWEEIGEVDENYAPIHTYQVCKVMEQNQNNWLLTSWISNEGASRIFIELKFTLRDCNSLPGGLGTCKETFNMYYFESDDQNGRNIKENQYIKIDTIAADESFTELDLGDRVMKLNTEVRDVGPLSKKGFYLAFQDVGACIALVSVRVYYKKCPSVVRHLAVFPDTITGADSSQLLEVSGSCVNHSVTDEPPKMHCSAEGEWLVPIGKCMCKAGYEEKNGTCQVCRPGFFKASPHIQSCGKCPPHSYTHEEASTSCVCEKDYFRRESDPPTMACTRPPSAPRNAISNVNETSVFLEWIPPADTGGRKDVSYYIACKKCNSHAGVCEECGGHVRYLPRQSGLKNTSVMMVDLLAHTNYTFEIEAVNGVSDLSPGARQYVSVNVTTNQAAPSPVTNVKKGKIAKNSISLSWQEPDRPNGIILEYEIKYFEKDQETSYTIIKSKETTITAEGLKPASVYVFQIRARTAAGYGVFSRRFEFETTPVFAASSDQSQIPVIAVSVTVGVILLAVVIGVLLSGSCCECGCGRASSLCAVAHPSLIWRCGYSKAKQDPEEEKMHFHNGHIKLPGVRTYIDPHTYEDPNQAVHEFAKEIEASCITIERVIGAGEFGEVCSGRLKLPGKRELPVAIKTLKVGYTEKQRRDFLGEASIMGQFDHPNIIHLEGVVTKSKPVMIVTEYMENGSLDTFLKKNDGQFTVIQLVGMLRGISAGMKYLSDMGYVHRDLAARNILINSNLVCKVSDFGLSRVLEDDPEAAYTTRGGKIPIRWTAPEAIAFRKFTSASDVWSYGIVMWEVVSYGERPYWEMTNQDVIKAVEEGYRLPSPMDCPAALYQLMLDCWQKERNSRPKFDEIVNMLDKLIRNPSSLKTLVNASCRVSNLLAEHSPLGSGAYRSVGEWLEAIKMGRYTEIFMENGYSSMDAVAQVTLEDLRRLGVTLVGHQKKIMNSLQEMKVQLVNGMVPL

SMILES | Kd [1] [µM] | Kd [2] [µM] | Kd [3] [µM] | Kd [4] [µM] | Kd [5] [µM] | Kd (LIM domain kinase 2) [µM] | Kd [6] [µM] | Kd [7] [µM] | Kd (Ephrin type-A receptor 5) [µM]
COCC(=O)NC/C=C/c1ccc2ncnc(Nc3ccc(Oc4ccc(C)nc4)c(C)c3)c2c1 [CP-724714] | > 10 | > 10 | > 10 | > 10 | > 10 | > 10 | > 10 | > 10 | > 10
CCOc1cc2ncc(C#N)c(Nc3ccc(F)c(Cl)c3)c2cc1NC(=O)/C=C/CN(C)C [PELITINIB] | > 10 | > 10 | > 10 | > 10 | > 10 | > 10 | > 10 | 4.9 | > 10
NC(=O)c1ccc(-c2nc(-c3ccc4c(c3)OCO4)c(-c3ccccn3)[nH]2)cc1 [SB-431542] | > 10 | > 10 | > 10 | > 10 | > 10 | > 10 | > 10 | > 10 | > 10
CCN1CCN(Cc2ccc(NC(=O)Nc3ccc(Oc4cc(NC)ncn4)cc3)cc2C(F)(F)F)CC1 [AST-487] | – | – | – | – | – | > 10 | – | – | –
Nc1nc(Nc2ccc(S(N)(=O)=O)cc2)nn1C(=O)c1c(F)cccc1F [JNJ-7706621] | – | > 10 | 2.7 | – | 1.6 | – | – | – | > 10
Oc1ccc(-c2nc(-c3ccncc3)c(-c3ccc(F)cc3)[nH]2)cc1 [SB-202190] | > 10 | > 10 | > 10 | > 10 | > 10 | > 10 | > 10 | > 10 | > 10
